Patent publication US20200289425A1, “CARBON DOT LIPOSOMES AND USES THEREOF” (National Taiwan University, priority 2017, published 2020)

Legend:
[1] = system: hepatoma cells Huh7; assay: Cancer cell growth, Alamar Blue assay, Huh7; assay type: cell-based; conditions: Huh7, 48 hr culture
Excerpt: (§1) Cell lines and cell culture. A549, Hela, MCF-7, Huh7, C2BBe1, BxPC-3, A375.S2, CCRF-CEM, TrampC1 and NIH 3T3 cells were obtained from the American Type Culture Collection (ATCC; Manassas, Va., USA). A549, Hela, Huh7, A375.S2, TrampC1, and NIH 3T3 cells were maintained in Dulbecco's minimal essential medium (DMEM) supplemented with 1.5 g/L sodium bicarbonate,10% fetal bovine serum (FBS), 1.0% antibiotic-antimycotic, L-glutamine (2.0×10^−3 M), and 1.0% nonessential amino acids. MCF-7, BxPC-3 and CCRF-CEM cells were cultured in Roswell Park Memorial Institute (RPMI) medium supplemented with 10% FBS, and 1.0% antibiotic-antimycotic. C2BBe1 cells were grown in DMEM 1.5 g/L sodium bicarbonate, 1.0% antibiotic-antimycotic, L-glutamine (2.0×10^−3 M), and 1.0% nonessential amino acids, 10 mg/L human holo-transferrin, and 10% fetal bovine serum. The cell number and viability of the cells were determined by the trypan blue exclusion method and Alamar Blue assay, respectively.
(§2) The assay is designed to measure quantitatively the proliferation of cell by use of a fluorometric/colorimetric growth indicator based on detection of metabolic activity. Specifically, the alamar blue system incorporates an oxidation-reduction (REDOX) indicator that both fluoresces and changes color in response to chemical reduction of growth medium resulting from cell growth. As cells being tested grow, innate metabolic activity results in a chemical reduction of the system. Continued growth maintains a reduced environment while inhibition of growth maintains an oxidized environment. Reduction related to growth causes the REDOX indicator to change from oxidized (non-fluorescent, blue) form to reduced (fluorescent, red) form.
(§3) Cell viability was determined by Alamar Blue assay in accordance with the manufacturer's protocols.

[2] = system: cervical cancer cells Hela; assay: Cancer cell growth, Alamar Blue assay, HeLa; assay type: cell-based; conditions: 48 hr culture
Excerpt: as §1, §2, §3

[3] = system: pancreatic cancer cells BxPC3; assay: Cancer cell growth, Alamar Blue assay, BxPC3; assay type: cell-based; conditions: BxPC3, 48 hr culture
Excerpt: as §1, §2, §3

[4] = system: lung cancer cells A549; assay: Cancer cell growth, Alamar Blue assay, A549; assay type: cell-based; conditions: A549, 48 hr culture
Excerpt: as §1, §2, §3

[5] = system: colon cancer cells C2BBE1; assay: Cancer cell growth, Alamar Blue assay, C2BBE1; assay type: cell-based; conditions: C2BBE1, 48 hr culture
Excerpt: as §1, §2, §3

[6] = system: A375.S2 cells; assay: Cancer cell growth, Alamar Blue assay, A375; assay type: cell-based; conditions: A375, 48 hr culture
Excerpt: as §1, §2, §3

[7] = system: breast cancer cells MCF7; assay: Cancer cell growth, Alamar Blue assay, MCF7; assay type: cell-based; conditions: MCF7, 48 hr culture
Excerpt: as §1, §2, §3

[8] = Degradation of drugs, standing in water for 48 hrs (HPLC or ICP MS); assay type: physicochemical; conditions: standing for 48 hrs
Method: In this example, the degradation of drug molecules encapsulated in the drug containing vesicles and that of free drugs were investigated. To this purpose, the drug containing vesicles of examples 1.2 or 1.3 or the free drug were placed in water, and let standing for 48 hrs, then the amounts of each drugs in the water were measured by HPLC or ICP MS.

[9] = free drug; cited from earlier work

IC50 ([1]; Homo sapiens, Huh-7) | IC50 ([2]; Homo sapiens) | IC50 ([3]; Homo sapiens, BXPC-3) | IC50 ([4]; Homo sapiens) | IC50 ([5]; Homo sapiens) | IC50 ([6]; A375-S2) | IC50 ([7]; Homo sapiens) | Percentage of drugs remained un-degraded [8] | SMILES | IC50 [1] | IC50 [2] | IC50 [3] | IC50 [4] | IC50 [5] | IC50 [6] | IC50 [7] | Solubility of the anti-cancer drug [9]
0.7 µM | 1.3 µM | 0.08 µM | 1.8 µM | 1.6 µM | 750 µM | 0.1 µM | 48.5% | CC(C)C[C@H](NC(=O)[C@H](CCc1ccccc1)NC(=O)CN1CCOCC1)C(=O)N[C@@H](Cc1ccccc1)C(=O)N[C@@H](CC(C)C)C(=O)[C@@]1(C)CO1 [Carfilzomib] | – | – | – | – | – | – | – | –
– | – | – | – | – | – | – | – | N.N.[Cl][Pt][Cl] [Cisplatin] | 6.3 µM | 3.1 µM | 4.8 µM | 6.5 µM | 11 µM | 9.2 µM | 33 µM | –
0.01 µM | 0.67 µM | 4.7 µM | 1 µM | 100 µM | 29 µM | 6.3 µM | 83.6% | CC(=O)O[C@@]12CO[C@@H]1C[C@H](O)[C@@]1(C)C(=O)[C@H](O)C3=C(C)[C@@H](OC(=O)[C@H](O)[C@@H](NC(=O)OC(C)(C)C)c4ccccc4)C[C@@](O)([C@@H](OC(=O)c4ccccc4)[C@H]21)C3(C)C [Docetaxel] | – | – | – | – | – | – | – | 0.27 mg/L
0.49 µM | 1.7 µM | 0.58 µM | 0.04 µM | 13 µM | 0.75 µM | 2 µM | 69.5% | COc1cccc2c1C(=O)c1c(O)c3c(c(O)c1C2=O)C[C@@](O)(C(=O)CO)C[C@@H]3O[C@H]1C[C@H](N)[C@H](O)[C@H](C)O1 [Doxorubicin] | – | – | – | – | – | – | – | 2,600 mg/L
1 µM | 94 µM | 51 µM | 17 µM | 170 µM | 66 µM | 48 µM | 58.8% | Nc1ccn([C@@H]2O[C@H](CO)[C@@H](O)C2(F)F)c(=O)n1 [Gemcitabine] | – | – | – | – | – | – | – | 51,000 mg/L
– | – | – | – | – | – | – | – | CC(=O)O[C@H]1C(=O)[C@@]2(C)[C@H]([C@H](OC(=O)c3ccccc3)[C@]3(O)C[C@H](OC(=O)[C@H](O)[C@@H](NC(=O)c4ccccc4)c4ccccc4)C(C)=C1C3(C)C)[C@]1(OC(C)=O)CO[C@@H]1C[C@@H]2O [Paclitaxel] | – | – | – | – | – | – | – | 5.6 mg/L
